“And” between values parts separate entries of the source, which are not always exact repeats. Identical values can stand only once.
Legend:
[1] = molecular target: T1, LuxR (Aliivibrio fischeri, UniProt P12746); test: LuxR luminescence antagonism and agonism assays in E. coli JM109 (pSB401); type: cell-based, Vibrio fischeri; settings: EC50 of autoinducer in E. coli JM109 (pSB401)
T1 construct: expressed in transfected cells; host or cells: E. coli JM109 (pSB401)
Method: Competitive inhibition assays were performed in the presence of both OHHL and PHLs 11 (at a 1:1 ratio), while agonism assays were performed with PHLs alone.
Luminescence assays. For agonism assays, an appropriate amount of AHL stock solution was added into a 96-well plate. […] A 200-μL portion of the diluted culture was added to each well of the plate. […] Luminescence was measured using a multilabel plate reader and normalized to cell density. […] All assays were performed in triplicate. Graphpad Prism software was used to calculate IC50 and EC50 values.
E. coli assay procedures. […] An overnight culture of E. coli JM109 (pSB401) was diluted 1:10 with LB medium (containing 10 μg/mL tetracycline). A 200-μL portion of the diluted culture was added to each well of the plate. Plates were grown at 30° C. with shaking (200 rpm) until the OD600=0.35-0.4 (6-8 h). Luminescence then was measured and normalized to cell density per well. […] All assays were performed in triplicate.

[2] = molecular target: T2, LuxR (Aliivibrio fischeri, UniProt P35327); test: cell-based; design: species or system Vibrio fischeri; settings: for EC50: LuxR EC50, V. fischeri ES114 (Δ-luxI)
T2 construct: a Δ-luxI derivative of V. fischeri ES114, in which the native lux operon behaves as the bioluminescent reporter; endogenous in cells; host or cells: V. fischeri ES114 (Δ-luxI)
T2 sequence (P35327 whole entry): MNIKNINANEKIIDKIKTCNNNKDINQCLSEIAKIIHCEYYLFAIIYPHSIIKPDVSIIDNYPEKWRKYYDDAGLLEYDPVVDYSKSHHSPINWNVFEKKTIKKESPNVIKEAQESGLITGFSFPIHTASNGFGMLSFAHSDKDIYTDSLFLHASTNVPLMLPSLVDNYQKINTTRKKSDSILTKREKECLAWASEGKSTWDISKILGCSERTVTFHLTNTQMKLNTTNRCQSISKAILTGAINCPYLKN
In short: (§1)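 Whole-cell luminescence reporter in V. fischeri ES114 (WT, Δ-luxI or Δ-luxR) or E. coli, overnight cultures diluted 1:10 and grown with compound at RT (E. coli 30° C) to OD600 0.35-0.4 (4-6 h). Luminescence normalized to cell density, triplicates; EC50/IC50 from sigmoidal fit.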

[3] = molecular target: QscR:DNA binding (PA1897 promoter) (Pseudomonas aeruginosa, UniProt G3XD77); settings: EMSA
Chain of QscR:DNA binding (PA1897 promoter) (G3XD77 entry or part of it): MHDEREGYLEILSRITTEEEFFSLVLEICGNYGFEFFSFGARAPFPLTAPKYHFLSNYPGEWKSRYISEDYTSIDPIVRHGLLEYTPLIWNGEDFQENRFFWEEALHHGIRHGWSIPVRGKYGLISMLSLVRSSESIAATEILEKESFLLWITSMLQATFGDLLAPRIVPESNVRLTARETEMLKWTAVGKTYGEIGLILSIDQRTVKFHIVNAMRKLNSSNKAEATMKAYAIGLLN
From the text: We sought to obtain further insights into the mechanism of QscR modulation by non-native AHLs. […] We therefore performed electromobility shift assays (EMSA) on purified QscR and radiolabeled PA1897 promoter in the presence of selected QscR antagonists and 1.

[4] = molecular target: T3, TraR (Agrobacterium tumefaciens, UniProt P33905); test: cell-based; settings: A. tumefaciens-TraR
T3 construct: These strains lack their AHL synthase (I) genes, but retain their native R genes; endogenous in cells; host or cells: A. tumefaciens WCF47 (Δ-traI) with PtraI-lacZ plasmid pCF372
T3 sequence (P33905 whole entry): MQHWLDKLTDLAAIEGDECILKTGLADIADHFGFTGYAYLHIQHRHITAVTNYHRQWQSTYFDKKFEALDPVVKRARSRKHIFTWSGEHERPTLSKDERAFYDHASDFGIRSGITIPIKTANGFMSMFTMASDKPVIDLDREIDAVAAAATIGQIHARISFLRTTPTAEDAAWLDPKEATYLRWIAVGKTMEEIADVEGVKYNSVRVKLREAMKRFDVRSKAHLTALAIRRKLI

[5] = molecular target: T4, LasR (Pseudomonas aeruginosa, UniProt P25084); test: cell-based; settings: E. coli-LasR; Library C primary agonism screen
T4 construct: expressed in transfected cells; host or cells: E. coli DH5α (pJN105L pSC11), arabinose-induced
T4 sequence (P25084 whole entry): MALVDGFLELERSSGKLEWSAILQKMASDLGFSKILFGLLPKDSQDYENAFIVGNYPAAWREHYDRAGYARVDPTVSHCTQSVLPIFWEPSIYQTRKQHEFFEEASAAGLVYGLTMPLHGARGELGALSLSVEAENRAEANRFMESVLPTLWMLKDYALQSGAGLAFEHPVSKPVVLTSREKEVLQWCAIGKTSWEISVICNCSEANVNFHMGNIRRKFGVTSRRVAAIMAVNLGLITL
In short: (§2)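 E. coli DH5α carrying pJN105L/pSC11 grown to OD600 0.3, LasR expression induced with arabinose (4 mg/mL), then incubated with AHLs at 37 °C to OD600 0.45. LasR activity read by β-galactosidase reporter assay; IC50/EC50 from sigmoidal dose-response fits.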

[6] = molecular target: T4, LasR; test: cell-based; type: cell-based; settings: E. coli-LasR; Library C primary antagonism screen
In short: as §2

[7] = molecular target: T2, LuxR; test: cell-based; type: cell-based, Vibrio fischeri
In short: as §1

[8] = test system: wild-type V. fischeri ES114; test: Luminescence dose response in wild-type V. fischeri ES114; type: cell-based, Vibrio fischeri; settings: relative to OHHL
Method: (§3) Vibrio fischeri assay procedures. For primary agonism assays, an appropriate amount of concentrated control or PHL (11) stock solution, to give a final concentration of 200 μM, was added to wells in a 96-well multititer plate. An overnight culture of V. fischeri ES114 (WT, Δ-luxI or Δ-luxR) was diluted 1:10 with LBS medium. A-200 μL portion of the diluted culture was added to each well of the plate. Plates were grown at RT with shaking (200 rpm) until the OD600=0.35-0.4 (4-6 h). Luminescence then was measured and normalized to cell density per well. […] Similar methods were used for dose response assays, except the concentrations of controls and PHLs 11 used were between 0.02 and 2×10^5 nM. All assays were performed in triplicate. IC50 and EC50 values were calculated using GraphPad Prism software using a sigmoidal curve fit.

[9] = test system: V. fischeri ES114 (Δ-luxR); test: Luminescence assay in Δ-luxR derivative of V. fischeri ES114; type: cell-based, Vibrio fischeri
Method: as §3

[10] = test system: Euprymna scolopes squid; test: Preliminary experiments in squid / invertebrate model systems (tolerance, activity in vivo)

T1 sequence (P12746 whole entry): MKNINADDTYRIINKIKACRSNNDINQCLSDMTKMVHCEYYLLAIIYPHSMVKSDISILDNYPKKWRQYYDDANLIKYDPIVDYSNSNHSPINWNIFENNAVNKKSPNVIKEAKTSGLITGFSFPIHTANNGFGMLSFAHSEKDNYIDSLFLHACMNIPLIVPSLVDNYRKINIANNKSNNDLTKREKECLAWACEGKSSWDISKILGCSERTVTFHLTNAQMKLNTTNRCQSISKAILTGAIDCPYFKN

CCCC(=O)CC(=O)N[C@H]1CCOC1=O [compound 3, N-(3-oxo-hexanoyl)-L-homoserine lactone, reference compound]
EC50 [1]: ~0.01 µM and 0.02 µM | EC50 [2]: 3 µM and ~5 µM

CCOc1ccc(CC(=O)N[C@H]2CCOC2=O)cc1 [C25]
inhibition of OdDHL-dependent QscR:DNA binding [3]: capable of inhibiting OdDHL (1)-dependent QscR:DNA binding | Activation (%) ([4]; Library C primary agonism screen): 0% | Inhibition (%) ([4]; Library C primary antagonism screen): 35% | Activation (%) [5]: 0% | Inhibition (%) [6]: 15% | Inhibition (%) ([7]; V. fischeri-LuxR, Library C primary antagonism screen): 55% | Activation (%) ([2]; V. fischeri-LuxR, Library C primary agonism screen): 2%

O=C(Cc1cccc([N+](=O)[O-])c1)N[C@H]1CCOC1=O [11n, N-(3-nitro-phenylacetanoyl)-L-homoserine lactone]
activity in wild-type V. fischeri [8]: similarly heightened activity | luminescence / activity in Δ-luxR derivative of V. fischeri ES114 [9]: Neither 11n nor OHHL induced any detectable luminescence | V. fischeri-LuxR Inhibition [%] ([7]; 5 μM synthetic ligand against 5 μM OHHL, V. fischeri ES114 (Δ-luxI), normalized to OHHL): no inhibitory activity | activity / modulation of quorum sensing in vivo [10]: active in vivo | tolerance in squid / invertebrate model systems [10]: well tolerated | EC50 lower / activity higher relative to OHHL ([2]; LuxR): 10 fold | EC50 [2]: 0.3 µM | luminescence induced higher than native ligand OHHL ([2]; primary agonism assay, 200 μM, same concentration as OHHL): 29% | activation at 200 µM ([2]; read-out: V. fischeri-LuxR Activation [%], 200 μM ligand, V. fischeri ES114 (Δ-luxI), normalized to OHHL): ≥ 60%

— patent US7910622B2, “Modulation of bacterial quorum sensing with synthetic ligands” (Wisconsin Alumni Research Foundation, priority 2007, dated 2011)
